Assay results reported in patent EP0779076A1, “PEPTIDE, A METHOD OF OBTAINING IT AND A PHARMACEUTICAL COMPOUND BASED ON IT” (priority 1994, dated 1996).
Non-standard residues stand in square brackets, D forms with d. Residues, ends and D or L forms follow the SMILES beside them.

Experiments:
[1] = tested on: rats; experiment: Tail flick analgesic test; assay type: in vivo; conditions: intranasally 0.005 mg/kg
Description: Opium-like activity was studied in a classical way by […] tests on isolated organs: - Test GPI (Guang T.A, Kosterlitz H.W, Agonist and antagonist action of morphine like drugs on the guinea pigs isolated ileum, Br.J. Pharmacol., 1966, V.27N3.P.514-527 - Test MVD; Hughs J., Kosterlitz H.W., Leslie F.M, Effect of morphine on adrenergic transmission in mouse is different. Assessment of agonist and antagonist potencies of narcotics, Br.J. Pharmacol., 1975, V. 53, N3-P. 371-381) As well as tests to determine opium-like activities by the […] hot plate test (Aukier S.I., New hot plate tests to qualify analgesic and narcotic antagonist activities, Eur.J. Pharmacol., 174 - V.27 Ni p.1-4) and "Tail flick" on rats (D'Amour F.E., Smith D.L, A method for determining loss, Exp.Ther.,1974, V.72 Ni-p.74-79).
The analgesic activities of those peptides were tested by the "tail flick" method on rats which received intranasally a dose of 0.005 mg/kg. A real analgesic effect of 242 units was characteristic to the peptide H-Arg-Tyr-D-Ala-Phe-Gly-OH. Table 2 outlines the findings with regard to the opium-like activity for this peptide group.

C[C@@H](NC(=O)[C@H](Cc1ccc(O)cc1)NC(=O)[C@@H](N)CCCNC(=N)N)C(=O)N[C@@H](Cc1ccccc1)C(=O)NCC(=O)O [H-Arg-Tyr-D-Ala-Phe-Gly-OH] (H-RY[dA]FG-OH)
analgesic effect [1]: 242 units
solubility in alcohol (alcohol): not well dissolvable in alcohol
solubility in chloroform (chloroform): nonsoluble in chloroform
solubility in water (water): dissolvable in water
